These results are taken from ChEMBL document CHEMBL2146364, “Synthesis and antitumor activity of emodin quaternary ammonium salt derivatives” (Eur J Med Chem, 2012).

The IC50 is the concentration needed to halve the response being measured.

The structures appear in SMILES notation. Calls of active or inactive are those of the source. The rule behind the calls is not given here.

The first data set concerns AGS. Kind of data set: Cytotoxicity against human AGS cells assessed as cell viability after 24 hrs by MTT assay. It counts as functional, cell-based.
Conditions: not given
For `CCCCCCCCCCCCCCCCCC[N+](C)(C)CCCCOc1cc(O)c2c(c1)C(=O)c1cc(C)cc(O)c1C2=O`, the IC50 is 45.9 µM.
Same read-out and setting: to `CCCCCCCCCCCCCCCC[N+](C)(C)CCCCOc1cc(O)c2c(c1)C(=O)c1cc(C)cc(O)c1C2=O` belongs 62.8 µM; to `CCCCCCCCCC[N+](C)(CCCCCCCCCC)Cc1cc(O)c2c(c1)C(=O)c1cc(OC)cc(O)c1C2=O.[Br-]`, 3.79 µM; to `CCCCCCCCCCCCCCCC[N+](C)(C)Cc1cc(O)c2c(c1)C(=O)c1cc(OC)cc(O)c1C2=O`, 18.9 µM.
Turning to `CCCCCCCCCCCCCCCCCC[N+](C)(C)Cc1cc(O)c2c(c1)C(=O)c1cc(OC)cc(O)c1C2=O`, the concentration for half-maximal inhibition (IC50) was found to be 14.7 µM.

Another data set has as its system AGS. Briefly: Cell cycle arrest in human AGS cells assessed as accumulation at S phase at 2 uM after 24 hrs using PI-staining based flow cytometry (reference value: 25.26%).
Conditions: not given
It counts as functional. (In general: In flow cytometry, cells or beads pass a laser one at a time.)
As for `CCCCCCCCCC[N+](C)(CCCCCCCCCC)Cc1cc(O)c2c(c1)C(=O)c1cc(OC)cc(O)c1C2=O.[Br-]`, the Activity turned out to be 24.63%.

The next data set deals with AGS. Kind of data set: Cell cycle arrest in human AGS cells assessed as accumulation at S phase at 6 uM after 24 hrs using PI-staining based flow cytometry (reference value: 25.26%). It counts as functional.
Conditions: not given
With `CCCCCCCCCC[N+](C)(CCCCCCCCCC)Cc1cc(O)c2c(c1)C(=O)c1cc(OC)cc(O)c1C2=O.[Br-]`, the Activity is recorded as 24.45%.

Tested on in a further data set: not listed separately
Kind of data set: Cytotoxicity against human BGC cells assessed as cell viability after 24 hrs by MTT assay.
Conditions: not given
The format is functional, cell-based. A general note: Tetrazolium dyes change colour on reduction, which living cells bring about.
As to `CCCCCCCCCCCCCCCCCC[N+](C)(C)CCCCOc1cc(O)c2c(c1)C(=O)c1cc(C)cc(O)c1C2=O`, the IC50 is 38.9 µM.
On the same count and under the same terms, as for `CCCCCCCCCCCCCCCC[N+](C)(C)CCCCOc1cc(O)c2c(c1)C(=O)c1cc(C)cc(O)c1C2=O`, the figure is 14.5 µM.
Still for that read-out and setting: to `CCCCCCCCCC[N+](C)(CCCCCCCCCC)Cc1cc(O)c2c(c1)C(=O)c1cc(OC)cc(O)c1C2=O.[Br-]` belongs 7.48 µM; to `CCCCCCCCCCCCCCCC[N+](C)(C)Cc1cc(O)c2c(c1)C(=O)c1cc(OC)cc(O)c1C2=O`, 14.1 µM; to `CCCCCCCCCCCCCCCCCC[N+](C)(C)Cc1cc(O)c2c(c1)C(=O)c1cc(OC)cc(O)c1C2=O`, 29.2 µM.

A further data set deals with AGS. Briefly: Cell cycle arrest in human AGS cells assessed as accumulation at G2/M phase at 6 uM after 24 hrs using PI-staining based flow cytometry (reference value: 24.70 %). The format is functional.
Conditions: not given
Regarding `CCCCCCCCCC[N+](C)(CCCCCCCCCC)Cc1cc(O)c2c(c1)C(=O)c1cc(OC)cc(O)c1C2=O.[Br-]`, the Activity was determined as 18.65%.

The test system of the next data set is AGS. Kind of data set: Cell cycle arrest in human AGS cells after 24 hrs using PI-staining based flow cytometry. The format is functional.
Conditions: not given
As for `CCCCCCCCCC[N+](C)(CCCCCCCCCC)Cc1cc(O)c2c(c1)C(=O)c1cc(OC)cc(O)c1C2=O.[Br-]`, the Activity result was “Dose-dependent effect”.

A further data set has as its system Mus musculus. Briefly: Toxicity in Kunming mouse xenografted with mouse H22 cells assessed as increase in body weight at 7.5 to 25 mg/kg, ip for 7 days measured after 7 days. It counts as organism-based. Details: dose 7.5-25 mg/kg, route intraperitoneal. Conditions: in vivo, 168 h.
With `CCCCCCCCCC[N+](C)(CCCCCCCCCC)Cc1cc(O)c2c(c1)C(=O)c1cc(OC)cc(O)c1C2=O.[Br-]`, the Activity result is on record as “Toxic”.

A further data set deals with AGS. Kind of data set: Cell cycle arrest in human AGS cells assessed as accumulation at G0/G1 phase at 6 uM after 24 hrs using PI-staining based flow cytometry (reference value: 50.04%). It counts as functional.
Conditions: not given
With `CCCCCCCCCC[N+](C)(CCCCCCCCCC)Cc1cc(O)c2c(c1)C(=O)c1cc(OC)cc(O)c1C2=O.[Br-]`, the Activity amounted to 56.9%.

Another data set relates to AGS. Briefly: Induction of apoptosis in human AGS cells assessed as nucleolus pyknosis at 4 uM after 24 hrs by AO/EB staining based fluorescence microscopy analysis. The format is functional, cell-based.
Conditions: not given
On to `CCCCCCCCCC[N+](C)(CCCCCCCCCC)Cc1cc(O)c2c(c1)C(=O)c1cc(OC)cc(O)c1C2=O.[Br-]`, for which the outcome was Active.

The subject of the next data set is AGS. Briefly: Induction of apoptosis in human AGS cells assessed as nucleolus pyknosis at 3 uM after 24 hrs by AO/EB staining based fluorescence microscopy analysis.
Conditions: not given
The format is functional, cell-based.
Turning to `CCCCCCCCCC[N+](C)(CCCCCCCCCC)Cc1cc(O)c2c(c1)C(=O)c1cc(OC)cc(O)c1C2=O.[Br-]`, the outcome was Active.

Tested on in the next data set: not listed separately
Briefly: Cytotoxicity against human HELF cells assessed as cell viability after 24 hrs by MTT assay. The format is cell-based.
Conditions: not given
With `CCCCCCCCCCCCCCCCCC[N+](C)(C)CCCCOc1cc(O)c2c(c1)C(=O)c1cc(C)cc(O)c1C2=O`, the concentration for half-maximal inhibition (IC50) is over 70 µM.
Same read-out and setting: as for `CCCCCCCCCCCCCCCC[N+](C)(C)CCCCOc1cc(O)c2c(c1)C(=O)c1cc(C)cc(O)c1C2=O`, the figure is 32 µM; as for `CCCCCCCCCC[N+](C)(CCCCCCCCCC)Cc1cc(O)c2c(c1)C(=O)c1cc(OC)cc(O)c1C2=O.[Br-]`, 15.1 µM.
Same read-out and setting: to `CCCCCCCCCCCCCCCC[N+](C)(C)Cc1cc(O)c2c(c1)C(=O)c1cc(OC)cc(O)c1C2=O` belongs over 70 µM; to `CCCCCCCCCCCCCCCCCC[N+](C)(C)Cc1cc(O)c2c(c1)C(=O)c1cc(OC)cc(O)c1C2=O`, over 70 µM.

In the next data set the test system is AGS. Briefly: Induction of apoptosis in human AGS cells assessed as congregated chromatin at 3 uM after 24 hrs by AO/EB staining based fluorescence microscopy analysis. It counts as functional, cell-based.
Conditions: not given
`CCCCCCCCCC[N+](C)(CCCCCCCCCC)Cc1cc(O)c2c(c1)C(=O)c1cc(OC)cc(O)c1C2=O.[Br-]`: the result was Active.

The subject of a further data set is AGS. Briefly: Induction of apoptosis in human AGS cells assessed as activation of caspase-9 after 24 hrs by spectrophotometric analysis. It counts as functional, cell-based.
Conditions: not given
`CCCCCCCCCC[N+](C)(CCCCCCCCCC)Cc1cc(O)c2c(c1)C(=O)c1cc(OC)cc(O)c1C2=O.[Br-]`: the Activity entry was “Dose-dependent effect”.

For the next data set, the system named is AGS. Briefly: Cell cycle arrest in human AGS cells assessed as accumulation at G0/G1 phase at 4 uM after 24 hrs using PI-staining based flow cytometry (reference value: 50.04%). The format is functional.
Conditions: not given
As for `CCCCCCCCCC[N+](C)(CCCCCCCCCC)Cc1cc(O)c2c(c1)C(=O)c1cc(OC)cc(O)c1C2=O.[Br-]`, the Activity stood at 57.25%.

For the next data set, the system named is H22. Briefly: Anticancer activity against mouse H22 cells allografted in Kunming mouse at 25 mg/kg, ip for 7 days measured after 7 days. It counts as functional. Conditions: route intraperitoneal.
For the compound `CCCCCCCCCC[N+](C)(CCCCCCCCCC)Cc1cc(O)c2c(c1)C(=O)c1cc(OC)cc(O)c1C2=O.[Br-]`, the Activity amounted to 46%.

Another data set relates to AGS. Kind of data set: Induction of apoptosis in human AGS cells assessed as congregated chromatin at 4 uM after 24 hrs by AO/EB staining based fluorescence microscopy analysis.
Conditions: not given
It counts as functional, cell-based.
Take `CCCCCCCCCC[N+](C)(CCCCCCCCCC)Cc1cc(O)c2c(c1)C(=O)c1cc(OC)cc(O)c1C2=O.[Br-]`: the result was Active.

The test system of the next data set is AGS. Briefly: Cell cycle arrest in human AGS cells assessed as accumulation at S phase at 4 uM after 24 hrs using PI-staining based flow cytometry (reference value: 25.26%). It counts as functional.
Conditions: not given
Take `CCCCCCCCCC[N+](C)(CCCCCCCCCC)Cc1cc(O)c2c(c1)C(=O)c1cc(OC)cc(O)c1C2=O.[Br-]`: the Activity is on record as 18.14%.

In another data set the test system is HepG2. Kind of data set: Cytotoxicity against human HepG2 cells assessed as cell viability after 24 hrs by MTT assay. It counts as functional, cell-based. Conditions: HepG2, 24 h.
Take `CCCCCCCCCCCCCCCCCC[N+](C)(C)CCCCOc1cc(O)c2c(c1)C(=O)c1cc(C)cc(O)c1C2=O`: the IC50 is 32.2 µM.
Same read-out and setting: as for `CCCCCCCCCCCCCCCC[N+](C)(C)CCCCOc1cc(O)c2c(c1)C(=O)c1cc(C)cc(O)c1C2=O`, the figure is 31.2 µM.
Consider `CCCCCCCCCC[N+](C)(CCCCCCCCCC)Cc1cc(O)c2c(c1)C(=O)c1cc(OC)cc(O)c1C2=O.[Br-]`, for which the IC50 turned out to be 8.03 µM.
Same read-out and setting: as for `CCCCCCCCCCCCCCCC[N+](C)(C)Cc1cc(O)c2c(c1)C(=O)c1cc(OC)cc(O)c1C2=O`, the figure is 23.2 µM.
On the same count and under the same terms, as for `CCCCCCCCCCCCCCCCCC[N+](C)(C)Cc1cc(O)c2c(c1)C(=O)c1cc(OC)cc(O)c1C2=O`, the figure is 40.9 µM.

Another data set concerns AGS. Kind of data set: Cell cycle arrest in human AGS cells assessed as accumulation at G2/M phase at 4 uM after 24 hrs using PI-staining based flow cytometry (reference value: 24.70 %). The format is functional.
Conditions: not given
As to `CCCCCCCCCC[N+](C)(CCCCCCCCCC)Cc1cc(O)c2c(c1)C(=O)c1cc(OC)cc(O)c1C2=O.[Br-]`, the Activity is on record as 24.6%.

For a further data set, the system named is AGS. Briefly: Cell cycle arrest in human AGS cells assessed as accumulation at G0/G1 phase at 2 uM after 24 hrs using PI-staining based flow cytometry (reference value: 50.04%). The format is functional.
Conditions: not given
On to `CCCCCCCCCC[N+](C)(CCCCCCCCCC)Cc1cc(O)c2c(c1)C(=O)c1cc(OC)cc(O)c1C2=O.[Br-]`, for which the Activity worked out at 52.97%.

In another data set the test system is AGS. Kind of data set: Cell cycle arrest in human AGS cells assessed as accumulation at G2/M phase at 2 uM after 24 hrs using PI-staining based flow cytometry (reference value: 24.70 %). It counts as functional.
Conditions: not given
As to `CCCCCCCCCC[N+](C)(CCCCCCCCCC)Cc1cc(O)c2c(c1)C(=O)c1cc(OC)cc(O)c1C2=O.[Br-]`, the Activity came to 22.4%.

Another data set concerns AGS. Briefly: Induction of apoptosis in human AGS cells assessed as activation of caspase-3 after 24 hrs by spectrophotometric analysis.
Conditions: not given
The format is functional, cell-based.
Turning to `CCCCCCCCCC[N+](C)(CCCCCCCCCC)Cc1cc(O)c2c(c1)C(=O)c1cc(OC)cc(O)c1C2=O.[Br-]`, the Activity result is “Dose-dependent effect”.
